Counter-ions that a name gives are not always drawn. Like-named read-outs stand apart in the source and are kept apart here.
How the values were obtained:
[1] = system: P. falciparum Dd2-HLH; assay: microbe, parasite or virus in culture; format: cell-based, Plasmodium falciparum
[2] = system: P. falciparum Dd2-HLH; assay: microbe, parasite or virus in culture; format: cell-based, Plasmodium falciparum; conditions: read-out: Blood stage 72h EC50
[3] = in vitro; conditions: human
[4] = system: P. berghei-luciferase sporozoites; assay: microbe, parasite or virus in culture; format: cell-based, Plasmodium berghei
[5] = system: HepG2 cells; assay: Mammalian cell cytotoxicity assay, HepG2 (CellTiter-Glo, 72 h); conditions: read-out: HEP CC50
[6] = system: HEK293T cells; assay: Mammalian cell cytotoxicity assay, HEK293T (CellTiter-Glo, 72 h); conditions: read-out: HEK CC50
[7] = system: HEK293T cells
[8] = system: HepG2 cells
[9] = Mammalian cell cytotoxicity assay, HepG2 (CellTiter-Glo, 72 h); conditions: human
[10] = Plasmodium falciparum, DD2, 72 h
[11] = P. falciparum blood-stage parasites, 48 hours in culture, read-out: Blood stage 48h EC50
[12] = P. falciparum blood-stage parasites, 72 hours in culture
[13] = liver-stage parasites, 48 hours in culture, read-out: Liver stage 48h EC50
[14] = Plasmodium falciparum, DD2, 48 h, read-out: Blood stage 48h EC50
[15] = Plasmodium berghei, HepG2, liver-stage parasites, 48 hours in culture, read-out: Liver stage 48h EC50
[16] = Plasmodium falciparum, DD2, P. falciparum blood-stage parasites, 72 hours in culture

Row | Structure (SMILES) | CC50 [3] [nM] | EC50 [1, 11] [nM] | EC50 [2, 12] [nM] | EC50 [4, 13] [nM] | CC50 [7] [nM] | CC50 [8] [nM] | other results
1 | COC(=O)C[C@](O)(CCCC(C)(C)O)C(=O)O[C@@H]1C(OC)=C[C@]23CCCN2CCc2cc4c(cc2[C@H]13)OCO4 [Homoharringtonine, reference compound] | 32 | – | – | – | – | – | EC50 ([1]; Plasmodium falciparum, DD2, Hec50, 48 h, read-out: Blood stage 48 h EC50): 6 nM; EC50 [2, 10]: 7 nM; EC50 ([4]; Plasmodium berghei, liver-stage parasites, 48 h in culture, read-out: Liver 48 h EC50): 26 nM
2 | CCC(CC)Nc1cc(C)nc(Oc2c(C)cc(C)cc2C)c1C [CP-376395] | – | 835 | 884 | 6260 | – | – | CC50 ([5]; HepG2 cells): 2500 nM; CC50 ([6]; HEK293T cells): > 9950 nM
3 | NC(=O)[C@@H](CC1CC1)[C@@H](CCC(F)(F)F)C(=O)N[C@H]1N=C(c2ccccc2)c2cccc(F)c2NC1=O [BMS-983970] | – | 63 | 84 | 102 | > 9950 | 59 | –
4 | C=C/C=C/C[C@@H](C)[C@@H](O)[C@H]1C(=O)N[C@@H](CC)C(=O)N(C)CC(=O)N(C)[C@@H](CC(C)C)C(=O)N[C@@H](C(C)C)C(=O)N(C)[C@@H](CC(C)C)C(=O)N[C@@H](C)C(=O)N[C@H](C)C(=O)N(C)[C@@H](CC(C)C)C(=O)N(C)[C@@H](CC(C)C)C(=O)N(C)[C@@H](C(C)C)C(=O)N1C [Voclosporin] | – | – | 254 | – | – | – | CC50 ([5]; HepG2 cytotoxicity): > 9950 nM; CC50 ([6]; HEK293T cytotoxicity): > 9950 nM
5 | O=C1c2ccccc2C(=O)c2sc(-c3ccco3)nc21 [INO-5042] | – | – | 403 | 2070 | 1330 | 705 | –
6 | CCNCc1cncc(-c2ccc3[nH]nc(-c4nc5c(F)cc(F)cc5[nH]4)c3c2)c1C [AG-024322] | – | – | 423 | 2990 | 145 | 112 | –
7 | CN(C)CCNc1nc2cc(O)ccc2c2c1C(=O)c1ccccc1-2 [TAS-103] | – | 574 | 756 | 1500 | – | – | CC50 ([5]; HepG2 cytotoxicity): 766 nM; CC50 ([6]; HEK293T cytotoxicity): 334 nM
8 | CC(C)CCNC(=O)C(CC(C)C)NC(=O)C1OC1C(=O)O (centres unmarked) [EP-475] | – | 267 | 313 | > 10000 | > 9950 | > 9990 | –
9 | CC(=O)[C@]1(O)Cc2c(O)c3c(c(O)c2[C@@H](O[C@H]2C[C@H](N)[C@H](O)[C@H](C)O2)C1)C(=O)c1ccccc1C3=O [Idarubicin] | 36 | – | – | – | – | – | EC50 [1, 14]: 1870 nM; EC50 [2, 10]: 302 nM; EC50 [4, 15]: 843 nM
10 | CCCCCCCCN=c1ccn(CCCCCCCC)cc1 [Pirtenidine] | – | – | 615 | 838 | – | – | CC50 ([5]; HepG2 cells): 1080 nM; CC50 ([6]; HEK293T cells): 279 nM
11 | CN(C)CCOc1ccc2[nH]c(C(=O)NCC#Cc3ccc(C(=O)NO)cc3)cc2c1 [CRA-026440] | – | 15 | 63 | 2490 | 836 | 107 | –
12 | Cc1cc(-c2cc(O)ccc2Cl)cc2nnc(Nc3ccc(OCCN4CCCC4)cc3)nc12 [TG 100572 (Hydrochloride)] | – | 122 | 589 | 642 | – | – | CC50 ([5]; HepG2 cells): 3440 nM; CC50 ([6]; HEK293T cells): 1730 nM
13 | Cc1cc2c(C(N)=O)cccc2n1-c1nc2c(c(NCc3ccccc3)n1)COCC2 [CB-5083] | 469 | – | – | – | – | – | EC50 [1, 14]: 233 nM; CC50 at 72 h [9]: 468 nM; EC50 [2, 10]: 608 nM; EC50 ([4]; Plasmodium berghei, HepG2, 48 h, read-out: Liver stage 48h EC50): 540 nM
14 | CS[C@H]1SC[C@H]2C(=O)N(C)[C@@H](C(C)C)C(=O)OC[C@@H](NC(=O)c3cnc4ccccc4n3)C(=O)N[C@@H](C)C(=O)N(C)[C@@H]1C(=O)N(C)[C@@H](C(C)C)C(=O)OC[C@@H](NC(=O)c1cnc3ccccc3n1)C(=O)N[C@@H](C)C(=O)N2C [Echinomycin] | 1 | – | – | – | – | – | CC50 at 72 h [9]: 1 nM; EC50 [2, 16]: 3 nM; EC50 [4, 15]: 2 nM
15 | CCCNCC(O)COc1ccccc1C(=O)CCc1ccccc1 (centres unmarked) [Propafenone SR] | – | – | – | – | > 9950 | > 9990 | EC50 ([1]; read-out: Blood stage 48h EC50): 253 nM; EC50 [2]: 566 nM; EC50 ([4]; read-out: Liver stage 48h EC50): > 10000 nM
16 | C[C@@H]1C[C@@H]([C@H](O)CC2CC(=O)NC(=O)C2)C(=O)[C@@H](C)C1 [Cycloheximide] | 759 | – | – | – | – | – | EC50 ([1]; Plasmodium falciparum, DD2, P. falciparum blood-stage parasites, 48 hours in culture, read-out: Blood stage 48h EC50): 178 nM; EC50 [2, 16]: 301 nM; EC50 [4, 15]: 109 nM

From PMC11145868, “Protein target similarity is positive predictor of in vitro antipathogenic activity: a drug repurposing strategy for Plasmodium falciparum” (Journal of Cheminformatics, 2024)
